Drawing on patent publication US20030199476A1, “Medicament for the stimulation of leucopoiesis and treatment of tumour and protozoan diseases acarinosis and arthropod-borne diseases and a method for production thereof” (priority 2000, published 2003), this text covers Necessary administration quantities, Toxicity and EC50 for six compounds.

pEC50: −log10 of the molar value. Where two headings read alike, the source gives them in different places.

Data set [1] can be described thus: Activity tests: necessary administration quantities. It is filed as in vivo. As to conditions: Form: Free (oral); rats/mice. An excerpt:
(§1) Toxicity and Activity Tests

The next data set in a line: Toxicity tests. Particulars: rats/mice; form not stated. Type of data set: in vivo.
Excerpt: as §1

The test system of data set [2] is Entamoeba histolytica HM-1:IMSS. The data set is described as follows: Cytotoxicity of alkylphosphocholines on amebae (Trypan blue count, Probit). It is filed as cell-based. Particulars: strain HM-1:IMSS, read-out: ED50 (the source's name). As to the method:
(§2) Entamoeba histolytica SFL-3 and HM-1: IMSS (American Type Culture collection, order number ATCC 30459), pathogenic amebae of zymodeme II, were cultured, at 37° C., in TYI-S-33 medium (Diamond et al., Trans. Roy. Soc. Trop. Med. Hyg. 72: 431-432 (1978)) containing 10% bovine serum. The cultures of SFL-3 were kept in 100 ml glass bottles while the cultures of HM-1:IMSS were kept in 50 ml tissue culture flasks.
(§3) 38 h cultures of E histolytica were used for measuring the cytotoxicity of the alkylphosphocholines. The amebae were released from the culture vessels by shaking, centrifuged down for 3 min at 2 000 revolutions per minute and 4° C. in a Heraeus Minifuge RF, resuspended in 20 ml of TYI-S-33 medium and counted in a hemocytometer chamber.
(§4) For each measurement, in each case 8-10×10^5 amebae were provided in 12 ml of medium in Pyrex tubes fitted with a screw closure and the alkylphosphocholine was added in a volume of 660 μl. […] (w/v) ethanol in double-distilled water was used for dissolving hexadecylphosphocholine and octadecylphosphocholine, while double-distilled water on its own was used for all the other substances and the liposomal preparations. 5% ethanol or double-distilled water was correspondingly added to the control cultures. The concentrations of alkylphosphocholines employed were 100 μM, 50 μM, 20 μM, 10 μM and 5 μM. Six cultures were in each case prepared for each of the concentrations.
(§5) The effect of the alkylphosphocholines was determined after 24 h and after 48 h. For this, in each case three of the cultures were shaken up and transferred into in each case three plastic centrifuge tubes. The amebae were centrifuged down for 5 min at 2 200 rpm and 4° C. and suspended in a final volume of 1 ml in a 1:1 mixture of Trypan blue (Sigma) and PBS. Each of the samples was then counted in the hemocytometer and the number of living and dead, stained blue due to having taken up the die, amebae was recorded.
(§6) The results were analyzed using the “Probit” program (Wernsdorfer and Wernsdorfer, Mitt. Österr. Ges. Tropenmed. Parasitol. 17:221-228 (1995)).
(§7) The tests were carried out as described above. The E. histolytica strains SFL-3 and HM-1:IMSS were tested. In each case six cultures were prepared for each concentration of alkylphosphocholine in pure or liposomal form. Three of the cultures were counted after […] and three further cultures were counted after 48 h. In each case two independent experiments were carried out for each of the two strains.

The test system of data set [3] is Entamoeba histolytica SFL-3. The data set is described as above. Type of data set: cell-based. Particulars: read-out: ED50 (the source's name). As to the method: as §2, §3, §4, §5, §6, §7

The compound `CCCCCCCCCCCCCCCCOP(=O)([O-])OCC[N+](C)(C)C` [APC 1, hexadecylphosphocholine] had a Necessary administration quantities in data set [1] of 60 µmol. Besides, in the data set “Toxicity tests”, the Toxicity is 90 µmol. Also, the pEC50 in data set [2] (day 1 (24 h)) was 4.03; in data set [2] (day 2 (48 h)), 4.08; in data set [3] (strain SFL-3, day 1 (24 h)), 4.06; in data set [3] (strain SFL-3, day 2 (48 h)) it was 4.30.
As to `CCCCCCCCCCCCCCCCCCOP(=O)([O-])OCC[N+](C)(C)C` [APC 2, octadecylphosphocholine], the pEC50 in data set [2] (day 1 (24 h)) was 4.10; in data set [2] (day 2 (48 h)), 4.15; in data set [3] (strain SFL-3, day 1 (24 h)), 4.44; in data set [3] (strain SFL-3, day 2 (48 h)) it was 4.62.
For the compound `CCCCCCCC/C=C\CCCCCCCCOP(=O)([O-])OCC[N+](C)(C)C` [APC 9, oleylphosphocholine], the Necessary administration quantities in data set [1] worked out at 20 µmol. Also, the pEC50 in data set [2] (day 1 (24 h)) was 3.92; in data set [2] (day 2 (48 h)) it was 4.10; in data set [3] (strain SFL-3, day 1 (24 h)) it was 4.49; in data set [3] (strain SFL-3, day 2 (48 h)), 4.80.
With `CCCCCCCC/C=C\CCCCCCCCCOP(=O)([O-])OCC[N+](C)(C)C` [APC 10, (Z)-10-nonadecenylphosphocholine], the pEC50 in data set [2] (day 1 (24 h)) was 3.95; in data set [2] (day 2 (48 h)) it was 4.06; in data set [3] (strain SFL-3, day 1 (24 h)) it was 4.62; in data set [3] (strain SFL-3, day 2 (48 h)), 4.70.
`CCCCCCCC/C=C\CCCCCCCCCCCCOP(=O)([O-])OCC[N+](C)(C)C` [Erucyl-PC]: the Necessary administration quantities in data set [1] was determined as 100 µmol.
In the case of `CCCCCCCCCCCCCCCCCCCOP(=O)([O-])OCC[N+](C)(C)C` [Nonadecyl-PC], the Necessary administration quantities in data set [1] stood at 20 µmol.
